Patent US7141562B2, “Substituted benzoxazinones and uses thereof” (Roche Palo Alto LLC, priority 2002, dated 2006)
pKi: −log10 of the molar value. Structures can show the parent of a compound that is named as a salt.

tested on: not given; assay: not given; details: not given

Row | SMILES | melting point
1 | COc1cc(N2CCNCC2)c2c(c1)N(Cc1cccc(Cl)c1)C(=O)CO2 (as salt: hydrochloride) | 55.2 to 58.8 °C
2 | O=C1COc2c(N3CCNCC3)cccc2N1Cc1ccccc1 (as salt: hydrochloride) | 250.9 to 253.8 °C

target: T1, recombinant human 5-HT6 receptor (Homo sapiens, UniProt P50406); assay: Radioligand binding: competition for [3H]LSD binding in membranes of HEK293 cells expressing the receptor; details: [3H]LSD (5 nM), HEK293 cell membranes, 60 min at 37° C., pH 7.4, duplicate determinations
T1 construct: expressed in transfected cells; cell membranes used
Description: The binding activity of compounds of this invention in vitro was determined as follows. Duplicate determinations of ligand affinity are made by competing for binding of [^3H]LSD in cell membranes derived from HEK293 cells stably expressing recombinant human 5-HT6 receptor.
All determinations were made in assay buffer containing 50 mM Tris-HCl, 10 mM MgSO4, 0.5 mM EDTA, 1 mM ascorbic acid, pH 7.4 at 37° C., in a 250 microliter reaction volume. Assay tubes containing [^3H] LSD (5 nM), competing ligand, and membrane were incubated in a shaking water bath for 60 min. at 37° C., filtered onto Packard GF-B plates (presoaked with 0.3% PEI) using a Packard 96 well cell harvester and washed 3 times in ice cold 50 mM Tris-HCl. Bound [^3H] LSD was determined as radioactive counts per minute using Packard TopCount.
Displacement of [3H]LSD from the binding sites was quantified by fitting concentration-binding data to a 4-parameter logistic equation:
[formula] where Hill is the Hill slope, [ligand] is the concentration of competing radioligand and IC50 is the concentration of radioligand producing half-maximal specific binding of radioligand. The specific binding window is the difference between the Bmax and the basal parameters.

T1 sequence (P50406 whole entry): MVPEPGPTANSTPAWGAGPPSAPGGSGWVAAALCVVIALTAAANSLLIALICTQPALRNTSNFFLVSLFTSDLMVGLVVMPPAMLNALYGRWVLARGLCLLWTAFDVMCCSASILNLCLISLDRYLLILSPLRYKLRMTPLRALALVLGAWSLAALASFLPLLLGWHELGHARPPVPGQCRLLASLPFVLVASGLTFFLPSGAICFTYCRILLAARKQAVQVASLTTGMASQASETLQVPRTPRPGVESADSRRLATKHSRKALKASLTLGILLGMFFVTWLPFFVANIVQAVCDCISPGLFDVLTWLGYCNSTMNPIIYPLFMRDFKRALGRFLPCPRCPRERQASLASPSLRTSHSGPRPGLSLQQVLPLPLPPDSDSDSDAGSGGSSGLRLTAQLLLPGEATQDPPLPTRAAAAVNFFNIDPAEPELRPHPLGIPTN

Row | SMILES | pKi
3 | CC1(C)Oc2c(N3CCNCC3)cccc2N(Cc2cccc(Cl)c2)C1=O [4-(3-Chloro-benzyl)-2,2-dimethyl-8-piperazin-1-yl-4H-benzo[1,4]oxazin-3-one] | 9.12
4 | C[C@@H]1Oc2c(N3CCNCC3)cccc2N(Cc2ccccc2)C1=O [(S)-4-Benzyl-2-methyl-8-piperazin-1-yl-4H-benzo[1,4]oxazin-3-one] | 9.12
5 | O=C1COc2c(N3CCNCC3)cc(F)cc2N1Cc1ccccc1F [4-(2-fluoro-benzyl)-6-fluoro-8-piperazin-1-yl-4H-benzo[1,4]oxazin-3-one] | 9.17
6 | CC1(C)Oc2c(N3CCNCC3)cccc2N(Cc2ccccc2)C1=O [4-Benzyl-2,2-dimethyl-8-piperazin-1-yl-4H-benzo[1,4]oxazin-3-one] | 9.13
7 | O=C1COc2c(N3CCNCC3)cccc2N1Cc1ccccc1F [4-(2-fluoro-benzyl)-8-piperazin-1-yl-4H-benzo[1,4]oxazin-3-one] | 9.04
